Reference: PubChem BioAssay (NCI)
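How tested: cells in 96-well plates exposed to compound for 48 hours at five concentrations. TGI denotes the concentration required for complete inhibition of growth.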

Assays:
Test in all cases: NCI tumour cell line growth inhibition, 48 h
[1] = system: SK-MEL-5 melanoma
[2] = system: HL-60(TB) leukemia
[3] = system: NCI-H226 lung
[4] = system: IGROV1 ovarian
[5] = system: NCI-H522 lung
[6] = system: T-47D breast
[7] = system: SK-OV-3 ovarian
[8] = system: MDA-MB-435
[9] = system: SW-620 colon
[10] = system: HCT-116 colon

Compound | TGI [1] | TGI [2] | TGI [3] | TGI [4] | TGI [5] | TGI [6] | TGI [7] | TGI [8] | TGI [9] | TGI [10]
COc1cc(NCCC2CCCCN2)c2ncccc2c1 (stereo not drawn) | > 55.4 µM | 19.1 µM | 97.9 µM | > 100 µM | > 100 µM | 4.83 µM | > 100 µM | > 67.2 µM | > 100 µM | > 67.6 µM
O=c1[nH]nc(Cc2c[nH]c3ccccc23)o1 | > 100 µM | > 100 µM | > 100 µM | > 100 µM | > 100 µM | > 100 µM |  | > 100 µM | > 100 µM | > 100 µM
O=C1C2=C(CC3=C(C2)CS(=O)(=O)C3)C(=O)C2=C1CC1=C(C2)CS(=O)(=O)C1 | 37.3 µM | 22 µM | > 59.7 µM | 36.5 µM | 22.2 µM | 8.66 µM | > 73.2 µM | 21.1 µM | 47.1 µM | 28.5 µM
CC(C)=CC(Cc1ccccc1)S(=O)(=O)c1nc2ccccc2s1 (stereo not drawn) | 27.1 µM | 9.62 µM | 29.6 µM | 62.7 µM | 29 µM | > 67.2 µM | 47.5 µM | 32.4 µM | 37.2 µM | 28.3 µM
CC(=O)OCC1OC(Nn2c(=O)[nH]c3ccccc3c2=O)C(OC(C)=O)C(OC(C)=O)C1OC(C)=O (stereo not drawn) | > 100 µM | > 100 µM | > 100 µM | > 100 µM | > 100 µM | > 100 µM | > 100 µM | > 100 µM | > 100 µM | > 100 µM
COc1cc(C2c3cc4c(cc3OC(NNS(=O)(=O)c3ccc(C)cc3)C2C)OCO4)cc(OC)c1O (stereo not drawn) | 25 µM | 35.4 µM | 60.2 µM | 30.8 µM | 69.1 µM | > 100 µM | 79.2 µM | 12.4 µM | > 100 µM | > 100 µM
CC1SCc2nc3ccccc3n21 (stereo not drawn) | > 100 µM | > 100 µM | > 100 µM | > 100 µM | > 100 µM | > 100 µM | > 100 µM | > 100 µM |  | > 100 µM
N#CC(=N)c1ncn(-c2ccc(N)cc2)c1N | > 100 µM | > 100 µM | > 100 µM | > 100 µM | > 100 µM | > 100 µM | > 100 µM | > 100 µM | > 100 µM | > 100 µM
CCOC(=O)C1c2[nH]c3ccccc3c2CCN1C(=O)c1ccc(OC)o1 (stereo not drawn) | > 10 µM | > 10 µM | > 10 µM | > 10 µM | > 10 µM | > 10 µM | > 10 µM | > 10 µM | > 10 µM | 
O=C1C(=O)N(c2cccc(C(F)(F)F)c2)C(=S)N1c1ccccc1 | 32 µM | 84.5 µM | 97.5 µM | 63.2 µM | 28 µM | > 100 µM | 70.4 µM | 82.4 µM | > 100 µM | > 100 µM
COc1ccccc1C1ON=C(c2ccc([N+](=O)[O-])cc2)N1C12CC3CC(CC(C3)C1)C2 (stereo not drawn) | > 100 µM | 42.5 µM | > 100 µM | > 100 µM | > 100 µM | > 100 µM | > 100 µM | > 100 µM | > 100 µM | > 100 µM
CS(=O)(=O)c1ccc(N=C/C=C/Nc2ccc(S(C)(=O)=O)cc2)cc1 | > 100 µM | > 100 µM | > 100 µM | > 100 µM | > 100 µM | > 100 µM | > 100 µM | > 100 µM | > 100 µM | > 100 µM
CC(C)[C@H](NC(=O)[C@H](N)Cc1ccc(N(CCCl)CCCl)cc1)C(=O)O | > 100 µM | > 100 µM | > 100 µM | > 100 µM | > 100 µM | > 100 µM | > 100 µM | > 100 µM | > 100 µM | > 100 µM
COC(=O)c1cc(C(=CCC[C@H]2CC[C@@]3(C)C(CCC4C3CC[C@@]3(C)C4CC[C@@H]3C(C)CCCC(C)C)C2)c2cc(Cl)c(O)c(C(=O)OC)c2)cc(Cl)c1O (stereo partly drawn) | > 10 µM | > 10 µM | > 10 µM | > 10 µM | > 10 µM | > 10 µM | > 10 µM | > 10 µM | > 10 µM | > 10 µM
C=CCN(C(=O)OC(C)(C)C)[C@H](C)C(=O)N[C@@H](C)C(=O)OC | > 100 µM | > 100 µM | > 100 µM | > 100 µM | > 100 µM | > 100 µM | > 100 µM | > 100 µM | > 100 µM | > 100 µM
C/C=C(\C)C(O)C(C)C(O)C/C=C(C)/C=C(\C)C/C(C)=C/C/C=C(\C)C(O)C(C)c1ccc(CCC)c(=O)o1 (stereo not drawn) | 14.3 µM | > 100 µM | 55.6 µM | 32.8 µM | 17.2 µM | 65.4 µM | 94.5 µM | 22.7 µM | 28.4 µM | 19.7 µM
Cc1ccc(O)c(C2=CC(c3cccc(Cl)c3)SC(N)=N2)c1 (stereo not drawn) | 30.1 µM | 61.6 µM | 38.9 µM | 46.5 µM | 34 µM | 99.2 µM | 80 µM | 37.1 µM | 65.9 µM | 39.7 µM
COC1CN(C)C(=Nc2cccc3ccccc23)S1 (stereo not drawn) | > 10 µM | > 10 µM |  | > 10 µM | > 10 µM | > 10 µM | > 10 µM | > 10 µM | > 10 µM | > 10 µM
COC(=O)C(Cc1c[nH]c2ccccc12)NC(=O)c1ccc(-c2ccc(Cl)cc2Cl)o1 (stereo not drawn) |  | > 100 µM | > 100 µM | > 100 µM | > 100 µM | > 100 µM | > 100 µM | > 100 µM | > 100 µM | > 100 µM
CN(C)C(c1ccccc1)C1COC2Cc3ccccc3C1O2 (stereo not drawn) | > 100 µM | > 100 µM | > 100 µM | > 100 µM | > 100 µM | > 100 µM | > 100 µM | > 100 µM |  | > 100 µM
O=C1c2ccccc2-c2nnc3c(c21)-c1ccccc1C3 | > 100 µM | > 100 µM | > 100 µM |  | > 100 µM | > 100 µM | > 100 µM | > 100 µM | > 100 µM | > 100 µM
